Data on 6 molecules can be found in ChEMBL document CHEMBL4311993, “Structure-activity relationship study of NPP1 inhibitors based on uracil-N1-(methoxy)ethyl-β-phosphate scaffold” (Eur J Med Chem, 2019).

The source made the active and inactive calls. The calls are words filed in the database; no cut-off is given here. A value given as a limit tells only on which side of the number the result lay.

Data set [1] has as its target T1, Ectonucleotide pyrophosphatase/phosphodiesterase family member 1 (Homo sapiens, UniProt P22413).
T1 sequence (P22413 whole entry): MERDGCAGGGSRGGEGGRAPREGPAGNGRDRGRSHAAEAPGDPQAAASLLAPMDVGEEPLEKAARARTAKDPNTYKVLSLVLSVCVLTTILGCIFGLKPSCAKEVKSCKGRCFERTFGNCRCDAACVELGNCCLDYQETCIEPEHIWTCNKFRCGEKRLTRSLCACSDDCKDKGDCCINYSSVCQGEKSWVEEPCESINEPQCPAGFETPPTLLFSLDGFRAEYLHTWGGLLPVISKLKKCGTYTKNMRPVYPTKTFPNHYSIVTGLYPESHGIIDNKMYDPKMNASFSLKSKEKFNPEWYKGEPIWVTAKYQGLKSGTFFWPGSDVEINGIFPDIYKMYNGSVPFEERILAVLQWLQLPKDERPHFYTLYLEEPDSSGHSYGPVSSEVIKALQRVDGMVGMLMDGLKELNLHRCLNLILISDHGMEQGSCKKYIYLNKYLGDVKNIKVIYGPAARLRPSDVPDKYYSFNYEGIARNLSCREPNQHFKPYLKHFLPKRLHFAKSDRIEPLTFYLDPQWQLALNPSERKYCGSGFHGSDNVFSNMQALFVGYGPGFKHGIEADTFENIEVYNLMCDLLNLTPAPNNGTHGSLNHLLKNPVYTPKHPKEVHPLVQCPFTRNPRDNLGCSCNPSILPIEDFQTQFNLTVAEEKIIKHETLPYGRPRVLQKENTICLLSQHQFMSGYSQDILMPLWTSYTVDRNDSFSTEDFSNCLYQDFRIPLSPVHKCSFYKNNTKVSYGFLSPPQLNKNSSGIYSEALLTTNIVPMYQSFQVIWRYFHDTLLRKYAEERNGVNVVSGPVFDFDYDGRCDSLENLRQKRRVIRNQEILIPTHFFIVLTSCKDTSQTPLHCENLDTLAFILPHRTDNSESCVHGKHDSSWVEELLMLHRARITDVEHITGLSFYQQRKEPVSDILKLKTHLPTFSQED
Kind of data set: Inhibition of human NPP1 expressed in COS7 cell membranes using pNP-TMP as substrate preincubated for 3 mins followed by substrate addition and measured after 15 mins by Dixon plot analysis.

Data set [2] in a line: Cytotoxicity against human primary chondrocytes at 100 uM after 24 hrs by XTT assay. A general note: Formazan colour is commonly taken as a measure of viable cells.
Data set [3] addresses T2, Ectonucleotide pyrophosphatase/phosphodiesterase family member 3 (Homo sapiens) (UniProt O14638).
T2 sequence (whole entry): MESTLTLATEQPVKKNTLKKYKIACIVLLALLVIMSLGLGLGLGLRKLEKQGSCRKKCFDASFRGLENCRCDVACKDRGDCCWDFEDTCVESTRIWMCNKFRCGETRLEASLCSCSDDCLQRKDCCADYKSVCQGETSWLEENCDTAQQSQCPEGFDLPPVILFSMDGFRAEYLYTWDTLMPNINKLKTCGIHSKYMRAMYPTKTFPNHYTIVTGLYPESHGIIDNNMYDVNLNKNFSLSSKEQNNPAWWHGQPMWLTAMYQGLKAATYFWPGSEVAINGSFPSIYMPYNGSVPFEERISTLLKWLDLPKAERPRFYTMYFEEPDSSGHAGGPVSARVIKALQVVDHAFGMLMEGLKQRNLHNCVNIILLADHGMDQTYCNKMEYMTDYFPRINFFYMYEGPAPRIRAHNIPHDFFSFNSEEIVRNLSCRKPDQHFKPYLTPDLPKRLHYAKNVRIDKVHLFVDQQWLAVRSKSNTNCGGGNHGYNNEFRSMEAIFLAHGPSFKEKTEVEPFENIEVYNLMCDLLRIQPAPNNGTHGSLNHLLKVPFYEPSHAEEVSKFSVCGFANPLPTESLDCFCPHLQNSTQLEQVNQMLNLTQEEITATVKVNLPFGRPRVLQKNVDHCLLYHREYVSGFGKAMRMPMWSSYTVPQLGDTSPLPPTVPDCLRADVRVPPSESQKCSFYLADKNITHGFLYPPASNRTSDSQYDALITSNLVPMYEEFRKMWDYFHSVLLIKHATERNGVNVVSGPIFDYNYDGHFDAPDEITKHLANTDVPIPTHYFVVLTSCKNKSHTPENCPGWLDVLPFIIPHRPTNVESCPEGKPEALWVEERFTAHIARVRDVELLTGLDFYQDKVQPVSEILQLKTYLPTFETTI
Kind of data set: Inhibition of human NPP3 expressed in COS7 cell membranes at 100 uM using pNP-TMP as substrate preincubated for 3 mins followed by substrate addition and measured after 15 mins relative to control.

Data set [4] addresses T3, Ectonucleotide pyrophosphatase/phosphodiesterase family member 1 (Homo sapiens) (UniProt P22413).
T3 sequence (whole entry): T1 sequence (P22413 whole entry)
Kind of data set: Inhibition of human NPP1 expressed in COS7 cell membranes at 100 uM using pNP-TMP as substrate preincubated for 3 mins followed by substrate addition and measured after 15 mins relative to control.

In data set [5] the target is P2Y purinoceptor 6 (Homo sapiens) (UniProt Q15077). Put plainly: Agonist activity at human P2Y6 receptor expressed in AD293 cells assessed as inositol-1-phosphate accumulation at 100 uM. It counts as functional, cell-based.
The species named for data set [6] is Homo sapiens. Put plainly: Inhibition of alkaline phosphatase in human primary chondrocyte at 100 uM using p-nitrophenyl phosphate as substrate after 30 mins by […] relative to control. In general terms: In an ELISA, binding on a coated surface is turned into a signal by an enzyme label.
In data set [7] the target is P2Y purinoceptor 2 (Homo sapiens) (UniProt P41231). Kind of data set: Agonist activity at human P2Y2 receptor expressed in AD293 cells assessed as induction of IP1 accumulation at 0.1 to 1 uM. The class given is functional, cell-based.
For data set [8], the target named is T2, Ectonucleotide pyrophosphatase/phosphodiesterase family member 3 (Homo sapiens). Put plainly: Inhibition of human NPP3 expressed in COS7 cell membranes at 100 uM using pNP-TMP as substrate preincubated for 3 mins followed by substrate addition and measured after 15 mins.
Data set [9] addresses T3, Ectonucleotide pyrophosphatase/phosphodiesterase family member 1 (Homo sapiens). Put plainly: Inhibition of human NPP1 expressed in COS7 cell membranes at 100 uM using pNP-TMP as substrate preincubated for 3 mins followed by substrate addition and measured after 15 mins.
For data set [10] the target is unchanged. Put plainly: Inhibition of NPP-1 in human articular chondrocytes at 100 uM using p-Nph-5'-TMP as substrate after 3 hrs by […] relative to control. The class given is cell-based.
The target of data set [11] is P2Y purinoceptor 2 (Homo sapiens) (UniProt P41231). Put plainly: Partial agonist activity at human P2Y2 receptor expressed in AD293 cells assessed as inositol-1-phosphate accumulation at 100 uM. It counts as functional, cell-based.

P2Y purinoceptor 2 (Homo sapiens), sequence (P41231 whole entry): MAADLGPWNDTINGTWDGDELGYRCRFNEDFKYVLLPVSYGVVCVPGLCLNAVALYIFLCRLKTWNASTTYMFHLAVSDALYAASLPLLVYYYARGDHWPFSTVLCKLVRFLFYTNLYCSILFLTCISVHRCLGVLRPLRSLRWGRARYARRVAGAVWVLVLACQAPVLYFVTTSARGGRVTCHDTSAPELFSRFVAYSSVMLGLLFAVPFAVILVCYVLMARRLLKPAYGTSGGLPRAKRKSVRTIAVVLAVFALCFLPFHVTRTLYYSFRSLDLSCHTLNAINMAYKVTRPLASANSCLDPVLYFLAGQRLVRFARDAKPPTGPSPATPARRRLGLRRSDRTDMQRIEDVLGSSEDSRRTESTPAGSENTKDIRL
P2Y purinoceptor 6 (Homo sapiens), sequence (Q15077 whole entry): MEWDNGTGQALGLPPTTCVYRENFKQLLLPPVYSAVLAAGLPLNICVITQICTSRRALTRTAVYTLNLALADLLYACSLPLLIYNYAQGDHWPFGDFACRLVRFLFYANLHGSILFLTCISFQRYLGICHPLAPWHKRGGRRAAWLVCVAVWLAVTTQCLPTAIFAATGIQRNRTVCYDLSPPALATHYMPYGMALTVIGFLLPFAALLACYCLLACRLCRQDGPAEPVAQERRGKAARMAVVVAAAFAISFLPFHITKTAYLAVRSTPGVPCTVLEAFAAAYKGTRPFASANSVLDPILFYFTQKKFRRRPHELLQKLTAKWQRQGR

By Ki is commonly meant the dissociation constant of the complex between target and ligand, obtained from inhibition or displacement. Higher therefore signals a looser hold on the target. What is called inhibition is the share of the control response that was lost under treatment. `O=c1ccn(COCCOP(=S)(S)OP(=O)(O)CP(=O)(O)O)c(=O)[nH]1` (stereo unspecified) registered a Ki in data set [1] of 940 nM. Moreover, in [2], the Activity result is reported as “Non-Toxic”. For the same molecule, the inhibition was 24% in data set [3], 96% in data set [4] and < 10% in data set [6]. In addition, in data set [5], the result was Active.

Regarding `O=c1ccn(COCCO[PH](=O)O)c(=O)[nH]1`, the result in [7] was inactive. The inhibition entry in [8] and in [9] was “inactive” each time.

Take `O=c1ccn(COCCOP(=O)(O)C(Cl)(Cl)P(=O)(O)O)c(=O)[nH]1`: the outcome in data set [7] was inactive. This molecule returned an inhibition in data set [4] of 51%. Moreover, the inhibition result in data set [8] is “Active”.

For the molecule `O=c1ccn(COCCOP(=S)(S)OP(=O)(O)C(Cl)(Cl)P(=O)(O)O)c(=O)[nH]1` (stereo unspecified), the Ki in [1] is 730 nM. Besides, the Activity entry in [2] is listed as “Non-Toxic”. Further, the inhibition in data set [3] is 21%; in [4], 96%; in data set [10] it was 96%; in [6], < 10%. Also, the result in data set [5] was Active.

For the molecule `O=c1ccn(COCCOP(=O)(O)CP(=O)(O)O)c(=O)[nH]1`, the result in [7] was inactive. Further, the inhibition in [4] was 54%. The inhibition entry in data set [8] was “Active”. Besides, the result in [5] and in [11] was Active.

For `O=c1ccn(COCCOP(=O)(O)O)c(=O)[nH]1`, the inhibition entry in data set [8] and in data set [9] was “inactive” each time.
